Entries after “also recorded” stand apart in the source; their conditions may differ. Where two headings read alike, the source gives them in different places.
Columns and labels:
[1] = tested on: SARS-CoV-2 isolate USA-WA1/2020
[2] = tested on: Calu-3 cells; design: method as in PMID 37040439; conditions: Calu-3, CellTiter-Glo, previously published, identical conditions ref 7; cited from earlier work
[3] = tested on: SARS-CoV-2 isolate USA-WA1/2020; design: method as in PMID 37040439; conditions: Calu-3, dotted lines of Fig. 2 and 3 ref 7; read-out: in vitro EC90 for SARS-CoV-2 infection in Calu-3 cells; cited from earlier work
[4] = tested on: SARS-CoV-2 isolate USA-WA1/2020; experiment: microbe, parasite or virus in culture; format: cell-based; conditions: for EC50 / EC90: Calu-3 cells, 44–48 hpi
[5] = tested on: SARS-CoV-2 isolate USA-WA1/2020; remark: listed apart in the source
[6] = tested on: SARS-CoV-2 isolate USA-WA1/2020; remark: listed apart in the source
[7] = tested on: Huh7.5 cells; design: method as in PMID 37040439; conditions: Huh7.5, CellTiter-Glo, previously published, identical conditions ref 7; cited from earlier work
[8] = 5-day oral tolerability study with terminal pharmacokinetics in BALB/c mice; format: in vivo; conditions: 80 mg/kg or 100 mg/kg daily PO
Procedure: (§1) Fig 3 Oral RVn prodrugs maintain high serum levels after repeated dosing in mice and hamsters. Multiple-dose oral tolerability and pharmacokinetics in mice and Syrian hamsters: (A and B) 5-day oral tolerability study in BALB/c mice with pharmacokinetics obtained after the final dose. Male 20–22 g mice were given the indicated drugs at (A) 80 mg/kg or (B) 100 mg/kg PO daily in 0.1 M sodium carbonate/bicarbonate pH 9 for 5 days. Plasma was obtained after the last dose at 1, 3, 6, and 12 h (In Vivo Technologies, Moffatt Field, CA). (C) 7-day oral tolerability study in Syrian hamsters with pharmacokinetics obtained after the final dose. […] All plasma samples were analyzed to determine prodrug levels (Aliri Bio, Colorado Springs, CO).
After fortification, 50 µL of plasma was crashed with 400 µL of methanol containing 10 ng/mL of the internal standard (V2066). One hundred fifty microliters of the supernatant was removed and diluted with 150 µL of water in a clean 96 well injection plate.
Chromatography for the prodrugs was performed on a Raptor Biphenyl (2.1 × 50) column at a flow rate of 0.5 mL/min. A gradient method starting at 60% B (0.1% formic acid in 90:10 methanol:acetonitrile) for 30 s and then ramping to 95% B over 2.5 min. This composition was held for 1.0 min before being returned to starting conditions and re-equilibration to 40% A (10 mM ammonium formate with 0.2% formic acid in water).
Oral pharmacokinetic studies were carried out at In Vivo Technologies (Moffatt Field, CA) in male BALB/c mice, 22–23 g under IACUC protocol number IVT-11–010Y12 (LifeSource Animal Care and Use Committee). […] Blood was obtained by facial vein or terminal cardiac puncture at the indicated times and plasma was frozen for analysis. Similar procedures were followed for 5-day tolerability and terminal dose pharmacokinetic studies in mice at oral daily doses of 80 or 100 mg/kg.

[9] = Single dose PO or IV plasma pharmacokinetics and tolerability in BALB/c mice; conditions: for tolerability of single escalating oral doses: 20, 60 or 180 mg/kg single oral dose
[10] = tested on: Vero-TMPRSS2 cells; experiment: Cell viability assay (CellTiter-Glo), Vero-TMPRSS2; format: cell-based, African green monkey; conditions: 48 h incubation
Procedure: (§2) Cell viability assays (Table 1) were performed as previously described ([7]). Cells were cultured and seeded as per in vitro antiviral studies in opaque walled 96-well cell culture plates and incubated overnight for Huh7.5, A2T2-A549, and Vero-E6-TMPRSS2 cells and for 2 days for Calu-3 cells. Compounds or controls were added at the indicated concentrations in a total volume of 100 µL, and cells were incubated for 48 h. An equal volume of CellTiter-Glo reagent (Promega, Cat. #G7570) or CellTiter-Glo 2.0 reagent (Promega, Cat. #G9241) was added and mixed, and luminescence was recorded on a Veritas Microplate Luminometer (Turner BioSystems) or a Spark Multimode plate reader (Tecan) according to manufacturer instructions. Percent viability was normalized to DMSO controls, and CC50 values were derived from best fit curves calculated in Prism 10.

[11] = tested on: A2T2-A549 cells; experiment: Cell viability assay (CellTiter-Glo), A2T2-A549; conditions: A2T2-A549, CellTiter-Glo, 48 h incubation
[12] = design: method as in PMID 34937145; conditions: early administration, non-hospitalized high-risk individuals ref 5; cited from earlier work
[13] = 7-day oral tolerability study with terminal pharmacokinetics in Syrian hamsters; format: in vivo; conditions: 100 mg/kg PO daily, 7 days
Procedure: as §1
A 7-day oral tolerability and terminal pharmacokinetic study in 100–125 g male Syrian hamsters were done at Attentive Sciences (Stillwell, KS), under IACUC approval number 1123–6788. […] Daily clinical observation and weights were obtained. After the day 7 oral dose blood was obtained at the indicated times and plasma was frozen for analysis.

[14] = in vivo; conditions: male, BALB/c, mouse
[15] = tested on: SARS-CoV-2 isolate USA-WA1/2020; experiment: microbe, parasite or virus in culture
[16] = Cell viability assay (CellTiter-Glo), Vero-TMPRSS2; format: cell-based, African green monkey; conditions: African green monkey, Vero-TMPRSS2 cells, 48 h incubation
Procedure: as §2

[17] = Cell viability assay (CellTiter-Glo), A2T2-A549; conditions: human, A2T2-A549 cells
[18] = tested on: SARS-CoV-2 isolate USA-WA1/2020; experiment: microbe, parasite or virus in culture; remark: listed apart in the source
[19] = tested on: SARS-CoV-2 isolate USA-WA1/2020; experiment: microbe, parasite or virus in culture; remark: listed apart in the source
[20] = IV, 7 mg/kg, BALB/c mice, plasma
[21] = Severe acute respiratory syndrome coronavirus 2
[22] = male, BALB/c, mouse, in vivo, iv, 7 mg/kg
[23] = male, BALB/c, mouse, in vivo, po, 20 mg/kg
[24] = male, BALB/c, mouse, in vivo, po, 60 mg/kg
[25] = male, BALB/c, mouse, in vivo, po, 180 mg/kg

With CCCCCCCCCCCCCCCCCCOCC(COP(=O)(O)OC[C@H]1O[C@@](C#N)(c2ccc3c(N)ncnn23)[C@H](O)[C@@H]1O)OCc1ccc(C#N)cc1 (stereo partly drawn) [Compound V2067] the “Relative activity vs RVn (RVN EC50/Test Compound EC50)” value ([1]; A2T2-A549) was 14.1×, the “SI (CC50/EC50)” value ([1]; A2T2-A549) was 386 and the EC50 ([1]; read-out: EC50 μM ± SD, A2T2-A549 cells, 48 hpi) was 0.213 ± 0.026 µM. For the same compound, the EC90 ([1]; read-out: EC90 μM ± SD, A2T2-A549 cells, 48 hpi) was 0.441 ± 0.071 µM, the CC50 [2] was 60200 nM and the EC90 [3] was 82 nM. The “Relative activity vs RVn (RVN EC50/Test Compound EC50)” value ([4]; Calu-3) was 12.5×, the EC50 [4] was 0.053 ± 0.018 µM and the EC90 [4] was 0.172 ± 0.14 µM. For the same compound, the “Relative activity vs RVn (RVN EC50/Test Compound EC50)” value ([5]; Vero-TMPRSS2) was 23.4×, the “SI (CC50/EC50)” value ([5]; Vero-TMPRSS2) was 1,239 and the EC50 ([5]; read-out: EC50 μM ± SD, Vero-TMPRSS2 cells, 32 hpi) was 0.046 ± 0.014 µM. For the same compound, the EC90 ([5]; read-out: EC90 μM ± SD, Vero-TMPRSS2 cells, 32 hpi) was 0.107 ± 0.02 µM, the “Relative activity vs RVn (RVN EC50/Test Compound EC50)” value ([6]; Huh7.5) was 37.7× and the “SI (CC50/EC50)” value ([6]; Huh7.5) was 1,311. For the same compound, the EC50 ([6]; read-out: EC50 μM ± SD, Huh7.5 cells, 48 hpi) was 0.036 ± 0.014 µM, the EC90 ([6]; read-out: EC90 μM ± SD, Huh7.5 cells, 48 hpi) was 0.096 ± 0.037 µM and the CC50 [7] was 47200 nM. The “tolerability of once-daily oral doses for 5 days” value [8] was “no adverse clinical effects were noted”, the “tolerability of single escalating oral doses” value ([9]; BALB/c mice) was “well tolerated with no appreciable adverse effects” and the AUC [9, 20] was 36.16 µM·h. The Cmax [9, 20] was 116 µM, the T1/2 [9, 20] was 0.23 h and the AUC ([9]; Oral, 20 mg/kg, BALB/c mice) was 64.70 µM·h. For the same compound, the CL/F ([9]; Oral, 20 mg/kg, BALB/c mice) was 6.22 mL/min/kg, the Cmax ([9]; Oral, 20 mg/kg, BALB/c mice) was 8.83 µM and the T1/2 ([9]; Oral, 20 mg/kg, BALB/c mice) was 4.06 h. For the same compound, the Vd/F ([9]; Oral, 20 mg/kg, BALB/c mice) was 2.18 L/kg, the AUC ([9]; Oral, 60 mg/kg, BALB/c mice) was 154.00 µM·h and the CL/F ([9]; Oral, 60 mg/kg, BALB/c mice) was 7.5 mL/min/kg. The Cmax ([9]; Oral, 60 mg/kg, BALB/c mice) was 24.9 µM, the T1/2 ([9]; Oral, 60 mg/kg, BALB/c mice) was 6.83 h and the Vd/F ([9]; Oral, 60 mg/kg, BALB/c mice) was 4.38 L/kg. The AUC ([9]; Oral, 180 mg/kg, BALB/c mice) was 332.00 µM·h, the CL/F ([9]; Oral, 180 mg/kg, BALB/c mice) was 8.17 mL/min/kg and the Cmax ([9]; Oral, 180 mg/kg, BALB/c mice) was 41 µM. For the same compound, the T1/2 ([9]; Oral, 180 mg/kg, BALB/c mice) was 12.40 h, the Vd/F ([9]; Oral, 180 mg/kg, BALB/c mice) was 8.74 L/kg and the “F% (oral bioavailability)” value ([9]; oral vs IV (7 mg/kg) prodrug exposure, printed on the 20 mg/kg oral lines, BALB/c mice) was 57.0%. For the same compound, the CC50 [10] was 57000 nM and the CC50 [11] was 82300 nM.

In the case of CCC(CC)COC(=O)[C@H](C)N[P@](=O)(OC[C@H]1O[C@@](C#N)(c2ccc3c(N)ncnn23)[C@H](O)[C@@H]1O)Oc1ccccc1 [remdesivir], the “decrease of the risk of hospitalization or death” value [12] is given as 87%.

In the case of CCCCCCCCCCCCCCCCCCOC[C@H](COP(=O)(O)OC[C@H]1O[C@@](C#N)(c2ccc3c(N)ncnn23)[C@H](O)[C@@H]1O)OCc1ccccc1 [Compound V2043, 1-O-octadecyl-2-O-benzyl-sn-glyceryl-P-RVn], the CC50 [2] is given as 58300 nM, the EC90 [3] is given as 320 nM and the “tolerability of seven-day once-daily oral dosing” value [13] is given as “well tolerated without any appreciable toxicity; also recorded: No ill effects were reported”. For the same compound, the EC50 [4, 21] was 0.168 ± 0.074 µM, the EC90 [4, 21] was 0.484 ± 0.142 µM and the half-life ([14]; iv, 7 mg/kg) was 0.7 h. It also gave a CL/F ([14]; po, 20 mg/kg) of 4.35 mL/min/kg, a Vd/F ([14]; po, 20 mg/kg) of 1.68 L/kg and a half-life ([14]; po, 20 mg/kg) of 4.46 h. For the same compound, the CL/F ([14]; po, 60 mg/kg) was 5.57 mL/min/kg, the Vd/F ([14]; po, 60 mg/kg) was 3.04 L/kg and the half-life ([14]; po, 60 mg/kg) was 6.31 h. For the same compound, the CL/F ([14]; po, 180 mg/kg) was 14.1 mL/min/kg, the Vd/F ([14]; po, 180 mg/kg) was 8.61 L/kg and the half-life ([14]; po, 180 mg/kg) was 7.06 h. The EC50 ([15]; Severe acute respiratory syndrome coronavirus 2, Vero/TMPRSS2, read-out: EC50 μM ± SD) was 0.104 ± 0.03 µM, the EC90 ([15]; Severe acute respiratory syndrome coronavirus 2, Vero/TMPRSS2, read-out: EC90 μM ± SD) was 0.248 ± 0.052 µM and the “tolerability of once-daily oral doses for 5 days” value [8] was “no adverse clinical effects were noted”. The “tolerability of single escalating oral doses” value ([9]; BALB/c mice) was “well tolerated with no appreciable adverse effects”, the AUC [9, 22] was 46.6 µM·h and the Cmax [9, 22] was 96.6 µM. It also gave an AUC [9, 23] of 90.1 µM·h, a Cmax [9, 23] of 10.6 µM and an AUC [9, 24] of 199 µM·h. For the same compound, the Cmax [9, 24] was 20.3 µM, the AUC [9, 25] was 211 µM·h and the Cmax [9, 25] was 17 µM. The CC50 at 48 h [16] was 82600 nM, the CC50 at 48 h [17] was greater than 100000 nM and the EC50 ([18]; Severe acute respiratory syndrome coronavirus 2, Huh7.5, read-out: EC50 μM ± SD) was 0.117 ± 0.009 µM. The EC90 ([18]; Severe acute respiratory syndrome coronavirus 2, Huh7.5, read-out: EC90 μM ± SD) was 0.293 ± 0.042 µM, the EC50 ([19]; Severe acute respiratory syndrome coronavirus 2, read-out: EC50 μM ± SD) was 0.566 ± 0.028 µM and the EC90 ([19]; Severe acute respiratory syndrome coronavirus 2, read-out: EC90 μM ± SD) was 1.62 ± 0.227 µM.

Source: paper PMC11459966, “Oral pharmacokinetics and efficacy of oral phospholipid remdesivir nucleoside prodrugs against SARS-CoV-2 in mice” (Antimicrobial Agents and Chemotherapy, 2024)
